Experimental data taken from paper PMC5224518, “Hydrophobic mismatch demonstrated for membranolytic peptides, and their use as molecular rulers to measure bilayer thickness in native cells” (Scientific Reports, 2015).
Where two headings read alike, the source gives them in different places. Ends that are not written are not given here.

Assays:
[1] = test system: Staphylococcus aureus (DSM 1104); format: cell-based
Procedure: (§1) Antimicrobial activity was measured by a standard MIC assay, carried out with Gram-positive Staphylococcus aureus (DSM 1104) and Enterococcus faecalis (DSM 2570) and with Gram-negative Escherichia coli (DSM 1103) and Pseudomonas aeruginosa (DSM 1117), as previously reported. Briefly, bacteria were grown in Müller-Hinton medium at 37°C overnight. Microtiter plates (96 wells of 100 μL) were filled with 50 μL of Müller-Hinton medium, and serial 2-fold dilutions of peptides were arranged in quadruple. The two final rows of each plate remained without peptide, so that the penultimate data point served as the positive control (no peptide), and the final one as the negative control (not inoculated). 50 μL of bacterial suspension (OD = 0.2) was added to the wells (except for the final row of each plate) to give a final concentration of 10^6 colony-forming units (CFU)/mL.

[2] = test system: Pseudomonas aeruginosa (DSM 1117); format: cell-based
Procedure: as §1

[3] = test system: Enterococcus faecalis (DSM 2570); format: cell-based
Procedure: as §1

[4] = test system: Escherichia coli (DSM 1103); format: cell-based
Procedure: as §1

[5] = Circular dichroism, secondary structure deconvolution (CONTIN-LL); format: physicochemical; conditions: CD, P/L 1:50, 30 μM peptide, 30°C; for Helicity: DMPC/DMPG (3:1) small unilamellar vesicles, 10 mM phosphate buffer pH 7, minimum helical content; for Percentage of secondary structure element: α-helix: DMPC/DMPG (3:1) vesicles
Procedure: CD samples were prepared by co-solubilizing DMPC and DMPG (3:1 mol/mol) in chloroform/methanol 3:1 (v/v). After drying, the lipid film was dispersed in phosphate buffer (10 mM, pH 7) and homogenized by vortexing. Small unilamellar vesicles (SUVs) for CD samples were generated by sonication in a high-power ultrasonic bath with a beaker-shaped sonotrode (UTR 200, Hielscher, Germany). CD spectra were recorded on a J-815 spectropolarimeter (JASCO, Groß-Umstadt, Germany) between 260 and 185 nm at 0.1-nm intervals, using 1-mm quartz glass cells (Suprasil; Hellma, Müllheim, Germany) at 20°C, as reported previously. The peptides were measured at 20°C in 10 mM sodium phosphate buffer (pH 7.0) and at 30°C in lipid vesicles composed of DMPC/DMPG (3:1). Typical peptide concentrations of the final samples in phosphate buffer was 36–72 μM, and for the vesicle samples 30 μM with a peptide-to-lipid molar ratio (P/L) of 1:50. An averaged baseline of the pure solvent or lipid matrix, respectively, was subtracted. Finally, the spectra were converted to mean residue ellipticities (MRE) by using the weighed-in peptide amount and the volume of the sample for concentration determination. […] Although this ambiguity in peptide concentration leads most probably to an underestimation of the magnitude of the MRE values we attempted a quantitative deconvolution of CD data to estimate the relative contents of different secondary structure elements. If part of the weighted material was not peptide, this leads to an underestimating of the MRE, which also leads to an underestimation of the helical content. The values obtained are thus the minimum helical content of each peptide.
Secondary structure estimation from CD spectra was performed using the CONTIN-LL program, which is based on the ridge regression algorithm. The algorithm is provided by the DICHROWEB on-line server. The quality of the fit between experimental and back-calculated spectrum corresponding to the estimated secondary structure fractions was assessed from the normalized root mean square deviation (NRMSD), with a value <0.1 considered as a good fit[74].

[6] = Vesicle leakage assay (ANTS/DPX fluorescence dequenching); format: biochemical; conditions: for percentage of leakage: P/L = 1:12.5, after 10 minutes, 100 μM lipid, 30°C, pH 7.5, relative to Triton X-100 = 100%
Procedure: For the leakage experiments, the buffer in which the vesicles were prepared contained the fluorophor ANTS (12.5 mM), the quencher DPX (45 mM), 50 mM NaCl, and 10 mM HEPES (pH 7.5). Liposomes were prepared by co-dissolving PC/PG 1:1 (mol/mol) mixtures of the lipids with different chain length in CHCl3/MeOH (3:1 v/v), together with 10^−2 mol% Rhod-PE by which the lipid loss during vesicle preparation (extrusion and gel filtration, see below) could be quantified. The peptide-to-lipid ratio (P/L) is given in mol/mol. The lipid mixture was dried under N2(g) and left to dry under vacuum overnight. The obtained thin film was then re-suspended in the buffer which contained the fluorophor and the quencher by vigorous vortexing, followed by 10 freeze-thaw cycles. Large unilamellar vesicles (LUV) were obtained by 21-fold extrusion (Avanti Mini Extruder; Avanti Polar Lipids, Alabaster, AL) of the liposomes through a Nuclepore polycarbonate membrane (pore size 100 nm, Whatman - GE Healthcare Europe, Freiburg, Germany) at a temperature 20°C above the lipid phase transition. Unencapsulated dye was removed by gel filtration using spin columns filled with Sephacryl 100-HR (Sigma-Aldrich, Taufkirchen, Germany), and equilibrated with an elution buffer (150 mM NaCl, 10 mM HEPES, pH 7.5) which balances the internal vesicle osmolarity.
Leakage of entrapped ANTS was monitored by fluorescence dequenching of ANTS[76]. Fluorescence measurements were performed in a thermostatted cuvette with constant stirring at 30°C in the same buffer as used for gel filtration on a FluoroMax2 spectrofluorimeter (HORIBA Jobin Yvon, Unterhaching, Germany) by setting the ANTS emission to 510 nm (5 nm slit) and its excitation to 355 nm (5 nm slit). The vesicles (100 μM lipid final concentration) of the desired composition were added to the cuvette containing the peptide at the P/L ratio to be tested (from 1 mM stock solutions in water). The level of 0% leakage corresponded to the fluorescence of the vesicles immediately after their addition, while 100% leakage was the fluorescence value obtained after addition of a 0.25 vol-% Triton X-100 after 10 min.

[7] = DErPC/DErPG 1:1 vesicles (34.4/34.4 Å)
[8] = DErPC/POPG 1:1 vesicles (34.4/27.8 Å)
[9] = DMoPC/DOPG 1:1 vesicles (hydrophobic thickness 19.2/27.5 Å)
[10] = POPC/DErPG 1:1 vesicles (27.1/34.4 Å)
[11] = POPC/POPG 1:1 vesicles (27.1/27.8 Å)

## KIAGKIAKIAGKIAKIAGKIAKIAGKIA-NH2 [KIA28]
[1]; DSM 1104, 20 h
  MIC: 2.6 µM
[2]; DSM 1117, 20 h
  MIC: 5.2 µM
[3]; DSM 2570, 20 h
  MIC: 5.2 µM
[4]; DSM 1103, 20 h
  MIC: 2.6 µM

## KIAGKIAKIAGKIAKIAGK-NH2 [KIA19]
[1]; DSM 1104, 20 h
  MIC: >120 µM
[2]; DSM 1117, 20 h
  MIC: 120 µM
[3]; DSM 2570, 20 h
  MIC: >481 µM
[4]; DSM 1103, 20 h
  MIC: 15 µM

## KIAGKIAKIAGKIAKIAGKIAKIAGK-NH2 [KIA26]
[1]; DSM 1104, 20 h
  MIC: 2.8 µM
[2]; DSM 1117, 20 h
  MIC: 5.6 µM
[3]; DSM 2570, 20 h
  MIC: 22 µM
[4]; DSM 1103, 20 h
  MIC: 1.4 µM

## GMASKAGAIAGKIAKVALKAL-NH2 [PGLa, reference compound]
[1]; S. aureus, same assay as Table 2, given in µM
  MIC: 30 µM
[2]; P. aeruginosa, same assay as Table 2, given in µM
  MIC: 119 µM
[3]; E. faecalis, same assay as Table 2, given in µM
  MIC: >477 µM
[4]; E. coli, same assay as Table 2, given in µM
  MIC: 15 µM

## KIAGKIAKIAGKIAK-NH2 [KIA15]
[5]
  Helicity: 69%
  Percentage of secondary structure element: α-helix: 68.7%
[6]; [7]
  percentage of leakage: 0%
[6]; [8]
  percentage of leakage: 3%
[6]; [9]
  percentage of leakage: 3%
[6]; [10]
  percentage of leakage: 2%
[6]; [11]
  percentage of leakage: 2%
[6]; POPC/POPG vesicles, P/L = 1:50, time course over 600 s, Triton X-100 = 100%
  leakage: < 2%
[1]; DSM 1104, 20 h
  MIC: >149 µM
[2]; DSM 1117, 20 h
  MIC: >149 µM
[3]; DSM 2570, 20 h
  MIC: >595 µM
[4]; DSM 1103, 20 h
  MIC: >149 µM
[4]; E. coli DSM 1103, MIC assay
  antimicrobial activity (in words): completely inactive

## KIAGKIAKIAGKIAKIAGKIAKIA-NH2 [KIA24]
[1]; DSM 1104, 20 h
  MIC: 1.5 µM
[2]; DSM 1117, 20 h
  MIC: 6.0 µM
[3]; DSM 2570, 20 h
  MIC: 24 µM
[4]; DSM 1103, 20 h
  MIC: 1.5 µM

## KIAGKIAKIAGKIAKIAGKIA-NH2 [KIA21]
[1]; DSM 1104, 20 h
  MIC: 3.5 µM
[2]; DSM 1117, 20 h
  MIC: 28 µM
[3]; DSM 2570, 20 h
  MIC: 443 µM
[4]; DSM 1103, 20 h
  MIC: 1.7 µM

## KIAGKIAKIAGKIAKIAGKIAK-NH2 [KIA22]
[5]
  Helicity: 68%
  Percentage of secondary structure element: α-helix: 67.7%
[6]; [7]
  percentage of leakage: 6%
[6]; [8]
  percentage of leakage: 85%
[6]; [9]
  percentage of leakage: 100%
[6]; [10]
  percentage of leakage: 26%
[6]; [11]
  percentage of leakage: 100%
[6]; POPC/POPG vesicles, P/L = 1:50, time course over 600 s
  kinetics (rate) of leakage: slower kinetics
[1]; DSM 1104, 20 h
  MIC: 6.5 µM
[2]; DSM 1117, 20 h
  MIC: 13 µM
[2]; P. aeruginosa DSM 1117, MIC assay
  antimicrobial activity (in words): somewhat active
[3]; DSM 2570, 20 h
  MIC: 414 µM
[3]; E. faecalis DSM 2570, MIC assay
  antimicrobial activity (in words): hardly any activity
[4]; DSM 1103, 20 h
  MIC: 1.6 µM

## KIAGKIAKIAGKIA-NH2 [KIA14]
[1]; DSM 1104, 20 h
  MIC: >164 µM
[2]; DSM 1117, 20 h
  MIC: >164 µM
[3]; DSM 2570, 20 h
  MIC: >657 µM
[4]; DSM 1103, 20 h
  MIC: >164 µM

## KIAGKIAKIAGKIAKIA-NH2 [KIA17]
[1]; DSM 1104, 20 h
  MIC: 134 µM
[2]; DSM 1117, 20 h
  MIC: 134 µM
[3]; DSM 2570, 20 h
  MIC: >537 µM
[4]; DSM 1103, 20 h
  MIC: 17 µM
